In assay [1] the test system is keratinocytes (HaCat line). The experiment in a line: Proliferation of keratinocytes (HaCat line) in medium deficient in growth factors; Cyquant, Nile red and XTT probes. Format: cell-based. Here is the method: The keratinocytes (HaCat line) are cultured under two conditions: whole defined culture medium (standard condition) and culture medium deficient in growth factors. This deficient medium gives rise to a controlled delay in cell proliferation. Under these conditions, it is then possible to measure the effects of compounds capable of compensating for the deficiency in growth factors of the culture medium and thus of relaunching the cell multiplication and/or of stimulating cell metabolism.
The keratinocyte proliferation is measured by means of three markers on the same cell population: the level of DNA, which is proportional to the number of cells (Cyquant probe), the level of constituent polar lipids of cell membranes (Nile red probe) and the mitochondrial respiration, which reflects the general cell metabolism (XTT probe).

Assay [2] deals with dermal fibroblasts of the reconstructed skin. Description: Proliferation of fibroblasts in whole reconstructed skin (propidium iodide count on frozen sections). Type of assay: cell-based, human. To be noted: 5 mM rhamnose; within 48 hours of treatment. The source says: Rhamnose was studied on a model of whole reconstructed skin in order to measure its anti-ageing efficacy on the dermal compartment.
Briefly, the model of reconstructed skin used is that described by Bell et al. (Bell E. et al., The reconstitution of living skin, J. Invest. Dermatol., 1983, July; 81): it includes a dermal equivalent on which is reconstructed a multistratified epidermis; the dermal equivalent is manufactured from acid-soluble collagen, culture medium containing serum and normal adult human fibroblasts. After 5 days of shrinkage, this equivalent is inoculated with keratinocytes and then cultured for 6 days in immersion and for 7 days in emersion in order to obtain a multistratified and differentiated epidermis having a horny layer.
The reconstructed skin is treated with 5 mM rhamnose for 2 days and 5 days in the culture medium; after the treatment, the reconstructed skins are included in Tissue Tek in order to produce frozen sections 7 μm thick with a cryostat. […] Three frozen sections are prepared at random on each reconstructed skin; on each section, two microscopic fields (25× objective lens) are analysed by fluorescence microscopy and photographed. The dermal fibroblasts are thus counted for each reconstructed skin on six images in total representing the six microscopic fields considered. […]

Another assay concerns type I procollagen. Description: Synthesis of procollagen 1 in reconstructed skin (indirect immunofluorescence). Format: cell-based, human. Here is the method: Conventional detection via indirect immunofluorescence of type I procollagen in the dermis of the reconstructed skin was also performed on other series of frozen sections (anti-procoll 1 antibody (MAB 1912 Millipore)+FTIC-coupled conjugate (112-095-068 Jackson Immunoresearch)). In order to obtain bearings within the cutaneous architecture during the microscopic examination of the sections, the cell nuclei of the keratinocytes and fibroblasts are localized by staining them with propidium iodide, as described above. Three frozen sections are prepared at random on each reconstructed skin and on each section, and two microscopic fields (25× objective lens) are analysed is by fluorescence microscopy and photographed. The levels of fluorescence proportional to the amount of type I procollagen are compared between the control skin and the skin treated with rhamnose.

As to `C[C@H](O)[C@H](O)[C@@H](O)[C@@H](O)C=O` [rhamnose], in assay [1] (keratinocytes cultured in medium depleted in growth factor), the “number of cells compared with an untreated control” value is recorded as “higher number of cells”. The keratinocyte proliferation entry in assay [1] (keratinocytes cultured in medium depleted in growth factors) is listed as “activate keratinocyte proliferation”. Also, the “growth of the dermal fibroblasts of the reconstructed skin” value in assay [2] is on record as “stimulation of growth”. In addition, the “synthesis of type I procollagen by the fibroblasts” value in the assay with type I procollagen (1 mM rhamnose for 120 hours, reconstructed skin) is recorded as “greatly stimulated”. For the same compound, the “green fluorescence (proportional to amount of type I procollagen) compared with control skin” value in the assay on type I procollagen (1 mM rhamnose for 120 hours, reconstructed skin section) is recorded as “marked increase”. Also, the “procollagen 1 synthesis” value with type I procollagen (1 mM, reconstructed skin) is “stimulation of procollagen 1 synthesis”; with type I procollagen (5 mM, reconstructed skin) it was “stimulation of procollagen 1 synthesis”.

(Values after patent US20100166897A1, “COMBINATION OF MONOSACCHARIDES WITH ANTIOXIDANTS AND USE THEREOF” (L'OREAL, priority 2008, published 2010).)
